Source: PubChem BioAssay AID1259407 (Chemical Carcinogenesis Research Information System (CCRIS), 2018)
Calls of active or inactive are those of the source. The rule behind the calls is not given here.

System: CCRIS mutagenicity, Ames/micronucleus/aberration tests
Assay: CCRIS mutagenicity studies
[1] = Test System: AMES SALMONELLA TYPHIMURIUM, Strain/Indicator: TA98, Metabolic Activation: NONE, Method: PREINCUBATION
[2] = Test System: AMES SALMONELLA TYPHIMURIUM, Strain/Indicator: TA100, Metabolic Activation: NONE, Method: PREINCUBATION
[3] = Test System: AMES SALMONELLA TYPHIMURIUM, Strain/Indicator: TA1535, Metabolic Activation: NONE, Method: PREINCUBATION
[4] = Test System: AMES SALMONELLA TYPHIMURIUM, Strain/Indicator: TA98, Metabolic Activation: NONE, Method: STANDARD PLATE
[5] = Test System: AMES SALMONELLA TYPHIMURIUM, Strain/Indicator: TA100, Metabolic Activation: NONE, Method: STANDARD PLATE
[6] = Test System: AMES SALMONELLA TYPHIMURIUM, Strain/Indicator: TA100, Metabolic Activation: RAT, LIVER, S-9, AROCLOR 1254, Method: STANDARD PLATE

N#CCCCCC#N
mutagenic call (Test System: AMES SALMONELLA TYPHIMURIUM, Strain/Indicator: TA97, Metabolic Activation: HAMSTER, LIVER, S-9, AROCLOR 1254 (10 OR 30%), Method: PREINCUBATION): inactive; negative
mutagenic call (Test System: AMES SALMONELLA TYPHIMURIUM, Strain/Indicator: TA97, Metabolic Activation: NONE, Method: PREINCUBATION): inactive; negative
mutagenic call (Test System: AMES SALMONELLA TYPHIMURIUM, Strain/Indicator: TA97, Metabolic Activation: RAT, LIVER, S-9, AROCLOR 1254 (10 OR 30%), Method: PREINCUBATION): inactive; negative
mutagenic call (Test System: AMES SALMONELLA TYPHIMURIUM, Strain/Indicator: TA98, Metabolic Activation: HAMSTER, LIVER, S-9, AROCLOR 1254 (10 OR 30%), Method: PREINCUBATION): inactive; negative
mutagenic call [1]: inactive; negative
mutagenic call (Test System: AMES SALMONELLA TYPHIMURIUM, Strain/Indicator: TA98, Metabolic Activation: RAT, LIVER, S-9, AROCLOR 1254 (10 OR 30%), Method: PREINCUBATION): inactive; negative
mutagenic call (Test System: AMES SALMONELLA TYPHIMURIUM, Strain/Indicator: TA100, Metabolic Activation: HAMSTER, LIVER, S-9, AROCLOR 1254 (10 OR 30%), Method: PREINCUBATION): inactive; negative
mutagenic call [2]: inactive; negative
mutagenic call (Test System: AMES SALMONELLA TYPHIMURIUM, Strain/Indicator: TA100, Metabolic Activation: RAT, LIVER, S-9, AROCLOR 1254 (10 OR 30%), Method: PREINCUBATION): inactive; negative
mutagenic call (Test System: AMES SALMONELLA TYPHIMURIUM, Strain/Indicator: TA1535, Metabolic Activation: HAMSTER, LIVER, S-9, AROCLOR 1254 (10 OR 30%), Method: PREINCUBATION): inactive; negative
mutagenic call [3]: inactive; negative
mutagenic call (Test System: AMES SALMONELLA TYPHIMURIUM, Strain/Indicator: TA1535, Metabolic Activation: RAT, LIVER, S-9, AROCLOR 1254 (10 OR 30%), Method: PREINCUBATION): inactive; negative

OCCN1CCN(CCCN2c3ccccc3Sc3ccc(C(F)(F)F)cc32)CC1
mutagenic call (Test System: AMES SALMONELLA TYPHIMURIUM, Strain/Indicator: TA98, Metabolic Activation: NONE): inactive; negative
mutagenic call (Test System: AMES SALMONELLA TYPHIMURIUM, Strain/Indicator: TA98, Metabolic Activation: RAT, LIVER, S-9, PHENOBARBITAL AND 5,6-BENZOFLAVONE): inactive; negative
mutagenic call (Test System: AMES SALMONELLA TYPHIMURIUM, Strain/Indicator: TA100, Metabolic Activation: NONE): inactive; negative
mutagenic call (Test System: AMES SALMONELLA TYPHIMURIUM, Strain/Indicator: TA100, Metabolic Activation: RAT, LIVER, S-9, PHENOBARBITAL AND 5,6-BENZOFLAVONE): inactive; negative
mutagenic call (Test System: AMES SALMONELLA TYPHIMURIUM, Strain/Indicator: TA1535, Metabolic Activation: NONE): inactive; negative
mutagenic call (Test System: AMES SALMONELLA TYPHIMURIUM, Strain/Indicator: TA1535, Metabolic Activation: RAT, LIVER, S-9, PHENOBARBITAL AND 5,6-BENZOFLAVONE): inactive; negative
mutagenic call (Test System: AMES SALMONELLA TYPHIMURIUM, Strain/Indicator: TA1537, Metabolic Activation: NONE): inactive; negative
mutagenic call (Test System: AMES SALMONELLA TYPHIMURIUM, Strain/Indicator: TA1537, Metabolic Activation: RAT, LIVER, S-9, PHENOBARBITAL AND 5,6-BENZOFLAVONE): inactive; negative
mutagenic call (Test System: E. COLI, Strain/Indicator: WP2 UVRA, Metabolic Activation: NONE): inactive; negative
mutagenic call (Test System: E. COLI, Strain/Indicator: WP2 UVRA, Metabolic Activation: RAT, LIVER, S-9, PHENOBARBITAL AND 5,6-BENZOFLAVONE): inactive; negative

CNC[C@H](O)c1ccc(O)c(O)c1
mutagenic call (Test System: AMES SALMONELLA TYPHIMURIUM, Strain/Indicator: TA98, Metabolic Activation: HAMSTER, LIVER, S-9, AROCLOR 1254 (10%), Method: PREINCUBATION): inactive; negative
mutagenic call [1]: inactive; negative
mutagenic call (Test System: AMES SALMONELLA TYPHIMURIUM, Strain/Indicator: TA98, Metabolic Activation: RAT, LIVER, S-9, AROCLOR 1254 (10%), Method: PREINCUBATION): inactive; negative
mutagenic call (Test System: AMES SALMONELLA TYPHIMURIUM, Strain/Indicator: TA100, Metabolic Activation: HAMSTER, LIVER, S-9, AROCLOR 1254 (10%), Method: PREINCUBATION): inactive; negative
mutagenic call [2]: inactive; negative
mutagenic call (Test System: AMES SALMONELLA TYPHIMURIUM, Strain/Indicator: TA100, Metabolic Activation: RAT, LIVER, S-9, AROCLOR 1254 (10%), Method: PREINCUBATION): inactive; negative
mutagenic call (Test System: AMES SALMONELLA TYPHIMURIUM, Strain/Indicator: TA1535, Metabolic Activation: HAMSTER, LIVER, S-9, AROCLOR 1254 (10%), Method: PREINCUBATION): inactive; negative
mutagenic call [3]: inactive; negative
mutagenic call (Test System: AMES SALMONELLA TYPHIMURIUM, Strain/Indicator: TA1535, Metabolic Activation: RAT, LIVER, S-9, AROCLOR 1254 (10%), Method: PREINCUBATION): inactive; negative
mutagenic call (Test System: AMES SALMONELLA TYPHIMURIUM, Strain/Indicator: TA1537, Metabolic Activation: HAMSTER, LIVER, S-9, AROCLOR 1254 (10%), Method: PREINCUBATION): inactive; negative
mutagenic call (Test System: AMES SALMONELLA TYPHIMURIUM, Strain/Indicator: TA1537, Metabolic Activation: NONE, Method: PREINCUBATION): inactive; negative
mutagenic call (Test System: AMES SALMONELLA TYPHIMURIUM, Strain/Indicator: TA1537, Metabolic Activation: RAT, LIVER, S-9, AROCLOR 1254 (10%), Method: PREINCUBATION): inactive; negative

Cc1cc(C)c2c(ccc3ccccc32)c1
mutagenic call [4]: inactive; negative
mutagenic call (Test System: AMES SALMONELLA TYPHIMURIUM, Strain/Indicator: TA98, Metabolic Activation: RAT, LIVER, S-9, AROCLOR 1254, Method: STANDARD PLATE): inactive; negative
mutagenic call [5]: inactive; negative
mutagenic call [6]: active; positive

Oc1ccc2ccc3c4ccccc4ccc3c2c1
mutagenic call [4]: inactive; negative
mutagenic call [5]: inactive; negative
mutagenic call [6]: active; positive

O=C(N=c1sn(C(=O)c2cccc(Cl)c2)c2ccc([N+](=O)[O-])cc12)c1cccc(Cl)c1
mutagenic call (Test System: AMES SALMONELLA TYPHIMURIUM, Strain/Indicator: TA100, Metabolic Activation: S-9, Method: STANDARD PLATE): active; positive

COC[C@@H]1C=C2c3cccc4c3c(cn4C)C[C@H]2N(C)C1
mutagenic call [6]: active; positive

OCc1cc2cccc3ccc4cc5ccccc5c1c4c32
mutagenic call [4]: inactive; negative
mutagenic call [5]: inactive; negative

O=C(O)/C=C\Cl
mutagenic call (Test System: AMES SALMONELLA TYPHIMURIUM, Strain/Indicator: TA97, Metabolic Activation: RAT, LIVER, S-9, PCB, Method: STANDARD PLATE): active; positive
mutagenic call (Test System: AMES SALMONELLA TYPHIMURIUM, Strain/Indicator: TA102, Metabolic Activation: RAT, LIVER, S-9, PCB, Method: STANDARD PLATE): active; positive

Nc1cc(S(=O)(=O)O)cc2c1C(=O)/C(=N/Nc1ccc(-c3ccc(N/N=C4/C(=O)c5c(N)cc(S(=O)(=O)O)cc5C=C4S(=O)(=O)O)cc3)cc1)C(S(=O)(=O)O)=C2
mutagenic call (End Point: IN VITRO CHROMOSOMAL ABERRATIONS, Test System: CHINESE HAMSTER OVARY CELLS, Metabolic Activation: NONE): inactive; negative
mutagenic call (End Point: IN VITRO CHROMOSOMAL ABERRATIONS, Test System: CHINESE HAMSTER OVARY CELLS, Metabolic Activation: RAT, LIVER, S-9, AROCLOR 1254): inactive; negative
mutagenic call (Test System: AMES SALMONELLA TYPHIMURIUM, Strain/Indicator: TA98, Metabolic Activation: HAMSTER, LIVER, S-9, Method: PREINCUBATION (PRIVAL METHOD)): active; positive
mutagenic call [4]: inactive; negative
mutagenic call (Test System: AMES SALMONELLA TYPHIMURIUM, Strain/Indicator: TA98, Metabolic Activation: RAT, LIVER, S-9, PHENOBARBITAL, Method: STANDARD PLATE): inactive; negative
mutagenic call (Test System: AMES SALMONELLA TYPHIMURIUM, Strain/Indicator: TA100, Metabolic Activation: HAMSTER, LIVER, S-9, Method: PREINCUBATION (PRIVAL METHOD)): active; positive
mutagenic call [5]: active; positive
mutagenic call (Test System: AMES SALMONELLA TYPHIMURIUM, Strain/Indicator: TA100, Metabolic Activation: RAT, LIVER, S-9, PHENOBARBITAL, Method: STANDARD PLATE): inactive; negative
mutagenic call (Test System: AMES SALMONELLA TYPHIMURIUM, Strain/Indicator: TA1538, Metabolic Activation: RAT, LIVER, S-9, AROCLOR 1254, Method: STANDARD PLATE): inactive; negative
mutagenic call (Test System: Mouse lymphoma, Strain/Indicator: L5178Y (tk+/tk-), Metabolic Activation: None, Method: Suspension/plate): inactive; negative
mutagenic call (Test System: Mouse lymphoma, Strain/Indicator: L5178Y (tk+/tk-), Metabolic Activation: Rat, Liver, S-9, Aroclor 1254, Method: Suspension/plate): inactive; equivocal (previous results negative)
